pIC50: −log10 of the molar value. Like-named read-outs stand apart in the source and are kept apart here.
Assays:
ALK = molecular target: T1, ALK (Homo sapiens, UniProt Q9UM73); assay: ALK Kinase Assay (ELISA/TRF, PLC-γ substrate); format: biochemical; settings: read-out: ALK Potency
T1 construct: host or cells: baculovirus expression system
Summary of the method: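 First, plates are coated with substrate (phospholipase C-γ, 10 μg/mL, TBS). Next, 30 ng/ml ALK initiates phosphorylation for 15 min at 37° C. Then Eu-N1 PT66 antibody is added for detection, and a nonlinear dose-response fit of percent inhibition yields IC50.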

JAK2 = molecular target: T2, JAK2 (Homo sapiens, UniProt O60674); assay: Recombinant Human JAK2 Kinase Assay (TRF); format: biochemical; settings: read-out: JAK2 Potency
T2 construct: host or cells: baculovirus expression system
Summary of the method: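 Europium-labelled PY100 antibody reported tyrosine phosphorylation of a Neutravidin-captured biotinyl 15-mer peptide by JAK2 (baculovirus-expressed, 15 ng/ml). Conditions: 20 mM HEPES pH 7.2, 0.2 μM ATP, 1 mM MnCl2, 0.1% BSA, DMSO 2.5% final, 20 min at room temperature.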

[1] = ALK kinase inhibition, 1 μM ATP
[2] = JAK2 kinase inhibition, 0.2 μM ATP

T1 sequence (Q9UM73 19-1620): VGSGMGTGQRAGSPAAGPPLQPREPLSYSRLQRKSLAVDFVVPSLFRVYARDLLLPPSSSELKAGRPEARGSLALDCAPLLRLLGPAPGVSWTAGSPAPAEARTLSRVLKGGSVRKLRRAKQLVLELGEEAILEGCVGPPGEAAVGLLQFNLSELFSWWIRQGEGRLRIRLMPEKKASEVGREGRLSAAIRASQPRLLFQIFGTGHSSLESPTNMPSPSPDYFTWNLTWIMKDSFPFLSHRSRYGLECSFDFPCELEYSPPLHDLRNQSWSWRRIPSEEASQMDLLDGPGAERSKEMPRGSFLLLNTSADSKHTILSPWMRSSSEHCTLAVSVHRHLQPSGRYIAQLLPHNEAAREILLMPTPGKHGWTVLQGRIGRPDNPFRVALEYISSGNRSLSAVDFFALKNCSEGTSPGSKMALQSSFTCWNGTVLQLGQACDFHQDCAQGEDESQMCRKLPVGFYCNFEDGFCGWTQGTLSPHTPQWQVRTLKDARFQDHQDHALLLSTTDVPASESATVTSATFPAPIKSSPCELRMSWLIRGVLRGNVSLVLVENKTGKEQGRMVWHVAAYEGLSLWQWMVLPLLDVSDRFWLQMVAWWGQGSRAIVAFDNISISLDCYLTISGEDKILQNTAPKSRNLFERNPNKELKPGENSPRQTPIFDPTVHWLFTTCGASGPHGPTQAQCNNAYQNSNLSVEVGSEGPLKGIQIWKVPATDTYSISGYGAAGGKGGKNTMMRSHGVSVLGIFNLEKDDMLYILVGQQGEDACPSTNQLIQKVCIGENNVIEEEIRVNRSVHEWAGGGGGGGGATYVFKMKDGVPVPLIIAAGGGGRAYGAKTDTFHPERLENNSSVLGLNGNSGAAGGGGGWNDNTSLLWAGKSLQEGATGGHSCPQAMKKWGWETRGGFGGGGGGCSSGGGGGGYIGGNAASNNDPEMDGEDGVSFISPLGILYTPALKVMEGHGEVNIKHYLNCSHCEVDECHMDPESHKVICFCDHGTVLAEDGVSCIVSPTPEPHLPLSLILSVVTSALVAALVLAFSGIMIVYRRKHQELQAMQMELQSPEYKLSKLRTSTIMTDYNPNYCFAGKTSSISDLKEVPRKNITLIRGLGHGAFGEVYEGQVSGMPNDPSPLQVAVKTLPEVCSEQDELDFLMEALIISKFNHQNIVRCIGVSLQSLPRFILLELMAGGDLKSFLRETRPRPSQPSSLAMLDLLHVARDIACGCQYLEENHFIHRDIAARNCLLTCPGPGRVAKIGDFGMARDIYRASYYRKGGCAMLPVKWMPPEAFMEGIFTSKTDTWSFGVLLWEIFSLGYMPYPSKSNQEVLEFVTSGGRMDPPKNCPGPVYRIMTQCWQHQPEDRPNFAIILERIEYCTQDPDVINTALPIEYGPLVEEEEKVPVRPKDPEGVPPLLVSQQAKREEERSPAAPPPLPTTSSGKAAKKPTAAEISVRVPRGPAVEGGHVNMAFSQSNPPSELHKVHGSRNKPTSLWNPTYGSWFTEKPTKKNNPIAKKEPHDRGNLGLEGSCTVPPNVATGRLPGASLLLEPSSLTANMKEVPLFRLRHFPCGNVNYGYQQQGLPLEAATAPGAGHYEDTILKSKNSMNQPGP
T2 sequence (O60674 whole entry): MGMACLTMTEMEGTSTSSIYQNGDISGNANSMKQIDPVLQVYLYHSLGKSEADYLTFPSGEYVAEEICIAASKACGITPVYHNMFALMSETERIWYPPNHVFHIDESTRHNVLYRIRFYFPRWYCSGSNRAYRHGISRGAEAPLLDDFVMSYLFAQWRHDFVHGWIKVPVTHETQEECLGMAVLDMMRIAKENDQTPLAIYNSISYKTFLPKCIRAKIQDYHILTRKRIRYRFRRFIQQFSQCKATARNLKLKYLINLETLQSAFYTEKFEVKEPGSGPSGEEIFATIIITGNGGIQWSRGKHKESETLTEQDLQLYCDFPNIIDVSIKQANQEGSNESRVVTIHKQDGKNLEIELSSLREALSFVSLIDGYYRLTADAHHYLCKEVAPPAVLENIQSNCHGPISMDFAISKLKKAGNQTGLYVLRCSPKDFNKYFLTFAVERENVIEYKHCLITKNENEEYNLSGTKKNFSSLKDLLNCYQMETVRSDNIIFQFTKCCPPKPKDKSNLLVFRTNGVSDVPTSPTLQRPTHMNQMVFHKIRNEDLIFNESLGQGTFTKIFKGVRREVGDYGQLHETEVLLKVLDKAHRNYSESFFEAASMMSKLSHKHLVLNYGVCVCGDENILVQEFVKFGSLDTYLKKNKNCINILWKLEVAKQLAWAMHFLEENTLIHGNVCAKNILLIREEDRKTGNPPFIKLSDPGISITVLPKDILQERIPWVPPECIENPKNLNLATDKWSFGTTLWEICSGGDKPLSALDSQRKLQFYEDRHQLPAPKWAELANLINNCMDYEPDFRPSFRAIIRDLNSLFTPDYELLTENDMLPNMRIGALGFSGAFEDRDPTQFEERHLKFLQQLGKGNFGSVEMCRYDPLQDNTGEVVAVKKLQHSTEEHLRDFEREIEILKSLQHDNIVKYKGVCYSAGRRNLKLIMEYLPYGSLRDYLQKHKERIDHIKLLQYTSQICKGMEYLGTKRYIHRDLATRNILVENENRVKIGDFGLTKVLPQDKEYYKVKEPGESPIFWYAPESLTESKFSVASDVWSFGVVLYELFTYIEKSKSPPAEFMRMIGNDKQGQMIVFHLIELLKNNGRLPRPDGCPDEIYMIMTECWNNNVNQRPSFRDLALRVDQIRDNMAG

Molecule | pIC50 (ALK; [1]) | pIC50 (JAK2; [2]) | pIC50 (ALK; ALK Kinase Inhibition) | pIC50 (JAK2; JAK2 Kinase Inhibition)
CN1CCN(Cc2cccc(Nc3ncc4ccc(-c5cccc(S(C)(=O)=O)c5)n4n3)n2)CC1 [Example 1124, [7-(3-Methanesulfonyl-phenyl)-pyrrolo[2,1-f][1,2,4]triazin-2-yl]-[6-(4-methyl-piperazin-1-ylmethyl)-pyridin-2-yl]-amine] | < 5.00 | < 5.00 | – | –
CN1CCN(c2ccc(Nc3ncc4ccc(CNc5ccccc5)n4n3)cc2)CC1 [Example 363, [4-(4-Methyl-piperazin-1-yl)-phenyl]-(7-phenylaminomethyl-pyrrolo[2,1-f][1,2,4]triazin-2-yl)-amine] | – | – | 5.00 to 6.00 | > 7.00
Cc1cc(Nc2ncc3ccc(-c4ccccc4N(C)S(C)(=O)=O)n3n2)cc2oc(=O)[nH]c12 [Example 628, N-Methyl-N-{2-[2-(4-methyl-2-oxo-2,3-dihydrobenzooxazol-6-ylamino)-pyrrolo[2,1-f][1,2,4]triazin-7-yl]phenyl}methanesulfonamide] | 6.00 to 7.00 | > 7.00 | – | –
CN(c1ccccc1-c1ccc2cnc(Nc3ccc4c(c3)N(S(C)(=O)=O)CCC4)nn12)S(C)(=O)=O [Example 1062, N-{2-[2-(1-Methanesulfonyl-1,2,3,4-tetrahydro-quinolin-7-ylamino)-pyrrolo[2,1-f][1,2,4]triazin-7-yl]-phenyl}-N-methyl-methanesulfonamide] | 6.00 to 7.00 | > 7.00 | – | –
COc1ccccc1-c1ccc2cnc(Nc3ccc4nc(C(F)(F)F)[nH]c4c3)nn12 [Example 1305] | 5.00 to 6.00 | > 7.00 | – | –
COc1cc(Nc2ncc3ccc(-c4ccccc4)n3n2)cc(OC)c1OC [Example 13, (7-Phenyl-pyrrolo[2,1-f][1,2,4]triazin-2-yl)-(3,4,5-trimethoxy-phenyl)amine] | – | – | 6.00 to 7.00 | > 7.00
O=S1(=O)CCCN1c1cccc(-c2ccc3cnc(Nc4ccc5nc[nH]c5c4)nn23)c1 [Example 1511, N-(1H-Benzimidazol-6-yl)-7-[3-(1,1-dioxido-1,2-thiazolidin-2-yl)phenyl]pyrrolo[2,14][1,2,4]triazin-2-amine] | – | – | 5.00 to 6.00 | > 7.00
COc1cc(C2CCN(CC(N)=O)CC2)ccc1Nc1ncc2ccc(-c3cccc(S(=O)(=O)NC(C)(C)C)c3)n2n1 [Example 693, 2-(4-{4-[7-(3-tert-Butylsulfamoylphenyl)pyrrolo[2,1-f][1,2,4]triazin-2-ylamino]-3-methoxyphenyl)piperidin-1-yl)-acetamide] | > 7.00 | 6.00 to 7.00 | – | –
COc1cc(N2CCC(F)(F)CC2)ccc1Nc1ncc2ccc(-c3ccccc3OC)n2n1 [Example 1470, [4-(4,4-Difluoro-piperidin-1-yl)-2-methoxy-phenyl]-[7-(2-methoxy-phenyl)-pyrrolo[2,1-f][1,2,4]triazin-2-yl]-amine] | – | – | 6.00 to 7.00 | > 7.00
CN(c1ccccc1-c1ccc2cnc(Nc3ccc4nc(C(C)(C)C)[nH]c4c3)nn12)S(C)(=O)=O [Example 1341, N-{2-[2-(2-tert-Butyl-3H-benzimidazol-5-ylamino)-pyrrolo[2,1-f][1,2,4]triazin-7-yl]-phenyl}-N-methyl-methanesulfonamide] | 6.00 to 7.00 | > 7.00 | – | –
COc1cc2c(cc1Nc1ncc3ccc(-c4ccccc4N(C)S(C)(=O)=O)n3n1)CCC1(CCN(C)CC1)O2 [Example 996, N-(2-{2-[(7-methoxy-1′-methyl-3,4-dihydrospiro[chromene-2,4′-piperidin]-6-yl)amino]pyrrolo[2,1-f][1,2,4]triazin-7-yl}phenyl)-N-methylmethanesulfonamide] | > 7.00 | 5.00 to 6.00 | – | –
c1ccc(-c2ccc3cnc(Nc4ccc5nc[nH]c5c4)nn23)nc1 [Example 1562, (3H-Benzimidazol-5-yl)-(7-pyridin-2-yl-pyrrolo[2,1-f][1,2,4]triazin-2-yl)-amine] | – | – | 5.00 to 6.00 | > 7.00
COc1ccc(Cl)cc1-c1ccc2cnc(Nc3ccc(C(=O)N4CCOCC4)cc3)nn12 [Example 315, {4-[7-(5-Chloro-2-methoxy-phenyl)-pyrrolo[2,1-f][1,2,4]triazin-2-ylamino]-phenyl}-morpholin-4-yl-methanone] | – | – | 6.00 to 7.00 | > 7.00
COc1ccccc1-c1ccc2cnc(Nc3ccc4c(c3)N(C(C)=O)CCCC4)nn12 [Example 639, 1-{8-[7-(2-Methoxyphenyl)-pyrrolo[2,1-f][1,2,4]triazin-2-ylamino]-2,3,4,5-tetrahydrobenzo[b]azepin-1-yl}ethanone] | 5.00 to 6.00 | > 7.00 | – | –
COc1cc(N2CCC(N3CCOCC3)CC2)ccc1Nc1ncc2ccc(-n3cccn3)n2n1 [Example 1272, [2-Methoxy-4-(4-morpholin-4-yl-piperidin-1-yl)-phenyl]-(7-pyrazol-1-yl-pyrrolo[2,1-f][1,2,4]triazin-2-yl)-amine] | 6.00 to 7.00 | 5.00 to 6.00 | – | –
NC(=O)CN1CCC(c2ccc(Nc3ncc4ccc(-c5cccc6c5OCC6)n4n3)cc2)CC1 [Example 706, 2-(4-{4-[7-(2,3-Dihydro-benzofuran-7-yl)-pyrrolo[2,1-f][1,2,4]triazin-2-ylamino]-phenyl}-piperidin-1-yl)-acetamide] | > 7.00 | > 7.00 | – | –
COc1ccccc1-c1ccc2cnc(Nc3ccc4ncn(CCN5CCOCC5)c4c3)nn12 [Example 1349, [7-(2-Methoxy-phenyl)-pyrrolo[2,1-f][1,2,4]triazin-2-yl]-[3-(2-morpholin-4-yl-ethyl)-3H-benzimidazol-5-yl]-amine] | 6.00 to 7.00 | > 7.00 | – | –
CN1CCC(c2ccc(Nc3ncc4ccc(-c5cnn(CCC#N)c5)n4n3)cc2)CC1 [Example 932, 3-(4-{2-[4-(1-Methyl-piperidin-4-yl)-phenylamino]-pyrrolo[2,1-f][1,2,4]triazin-7-yl}-pyrazol-1-yl)-propionitrile] | 6.00 to 7.00 | > 7.00 | – | –
O=S(=O)(c1cccc(-c2ccc3cnc(Nc4ccc(-c5cccnc5)cc4)nn23)c1)N1CCOCC1 [Example 1090, {7-[3-(Morpholine-4-sulfonyl)-phenyl]-pyrrolo[2,1-f][1,2,4]triazin-2-yl}-(4-pyridin-3-yl-phenyl)-amine] | 5.00 to 6.00 | > 7.00 | – | –
CN1CCN(c2ccc(Nc3ncc4ccc(-c5cccc(NS(C)(=O)=O)c5)n4n3)cc2)CC1 [Example 379, N-(3-{2-[4-(4-Methyl-piperazin-1-yl)-phenylamino]-pyrrolo[2,1-f][1,2,4]triazin-7-yl}-phenyl)-methanesulfonamide] | – | – | 6.00 to 7.00 | > 7.00
N-{2-tert-Butyl-5-[7-(5-chloro-2-methoxy-phenyl)-pyrrolo[2,1-f][1,2,4]triazin-2-ylamino]-phenyl}-acetamide [Example 305] | – | – | 6.00 to 7.00 | > 7.00
CN1CCN(c2ccc(Nc3ncc4ccc(-c5cnn(C)c5)n4n3)cc2)CC1 [Example 18, [4-(4-Methyl-piperazin-1-yl)-phenyl]-[7-(1-methyl-1H-pyrazol-4-yl)-pyrrolo[2,1-f][1,2,4]triazin-2-yl]-amine] | – | – | 6.00 to 7.00 | > 7.00
CCN(c1ccccc1-c1ccc2cnc(Nc3ccc(C4CCN(C[C@@H](C)O)CC4)cc3OC)nn12)S(C)(=O)=O [Example 873, N-Ethyl-N-[2-(2-{4-[1-((R)-2-hydroxy-propyl)-piperidin-4-yl]-2-methoxy-phenylamino}-pyrrolo[2,1-f][1,2,4]triazin-7-yl)-phenyl]-methanesulfonamide] | > 7.00 | 6.00 to 7.00 | – | –
COc1ccccc1-c1ccc2cnc(Nc3ccc4c(c3)CN(CC(N)=O)CC4)nn12 [Example 987, 2-{7-[7-(2-Methoxy-phenyl)-pyrrolo[2,1-f][1,2,4]triazin-2-ylamino]-3,4-dihydro-1H-isoquinolin-2-yl}-acetamide] | 6.00 to 7.00 | > 7.00 | – | –
CN1CCC(c2ccc(Nc3ncc4ccc(-c5cccc(N(C)C)c5)n4n3)cc2)CC1 [Example 662, [7-(3-Dimethylamino-phenyl)-pyrrolo[2,1-f][1,2,4]triazin-2-yl]-[4-(1-methyl-piperidin-4-yl)-phenyl]-amine] | > 7.00 | > 7.00 | – | –
COc1cc(Cl)ccc1-c1ccc2cnc(Nc3ccc(N4CCC(C(=O)N5CCN(C)CC5)CC4)cc3)nn12 [Example 484, (1-{4-[7-(4-Chloro-2-methoxy-phenyl)-pyrrolo[2,1-f][1,2,4]triazin-2-ylamino]-phenyl}-piperidin-4-yl)-(4-methyl-piperazin-1-yl)-methanone] | > 7.00 | > 7.00 | – | –
CC(C)(C)NS(=O)(=O)c1cccc(-c2ccc3cnc(Nc4ccc5cnn(CCN6CCOCC6)c5c4)nn23)c1 [Example 1324, N-tert-Butyl-3-{2-[1-(2-morpholin-4-yl-ethyl)-1H-indazol-6-ylamino]-pyrrolo[2,1-f][1,2,4]triazin-7-yl}-benzenesulfonamide] | 5.00 to 6.00 | > 7.00 | – | –
CN1CCN(c2ccc(Nc3ncc4ccc(-c5cccc(C(=O)OC(C)(C)C)c5)n4n3)cc2)CC1 [Example 1143, 3-{2-[4-(4-Methyl-piperazin-1-yl)-phenylamino]-pyrrolo[2,1-f][1,2,4]triazin-7-yl}-benzoic acid tert-butyl ester] | 6.00 to 7.00 | > 7.00 | – | –
CC(C)(C)NS(=O)(=O)c1cccc(-c2ccc3cnc(Nc4ccc5nc(CN6CCN(CCO)CC6)[nH]c5c4)nn23)c1 [Example 1520, N-tert-Butyl-3-(2-{2-[4-(2-hydroxy-ethyl)-piperazin-1-ylmethyl]-3H-benzimidazol-5-ylamino}-pyrrolo[2,1-f][1,2,4]triazin-7-yl)-benzenesulfonamide] | – | – | 6.00 to 7.00 | > 7.00

— patent US8471005B2 (Cephalon, Inc., priority 2008, dated 2013)
